We go through twelve molecules from patent US20090137499A1, “BENZYLPHENYL GLUCOPYRANOSIDE DERIVATIVE” (priority 2006, published 2009).

In the assay the target is T1, human SGLT2 (Homo sapiens, UniProt P31639).
T1 construct: expressed in transfected cells
T1 sequence (P31639 1-672): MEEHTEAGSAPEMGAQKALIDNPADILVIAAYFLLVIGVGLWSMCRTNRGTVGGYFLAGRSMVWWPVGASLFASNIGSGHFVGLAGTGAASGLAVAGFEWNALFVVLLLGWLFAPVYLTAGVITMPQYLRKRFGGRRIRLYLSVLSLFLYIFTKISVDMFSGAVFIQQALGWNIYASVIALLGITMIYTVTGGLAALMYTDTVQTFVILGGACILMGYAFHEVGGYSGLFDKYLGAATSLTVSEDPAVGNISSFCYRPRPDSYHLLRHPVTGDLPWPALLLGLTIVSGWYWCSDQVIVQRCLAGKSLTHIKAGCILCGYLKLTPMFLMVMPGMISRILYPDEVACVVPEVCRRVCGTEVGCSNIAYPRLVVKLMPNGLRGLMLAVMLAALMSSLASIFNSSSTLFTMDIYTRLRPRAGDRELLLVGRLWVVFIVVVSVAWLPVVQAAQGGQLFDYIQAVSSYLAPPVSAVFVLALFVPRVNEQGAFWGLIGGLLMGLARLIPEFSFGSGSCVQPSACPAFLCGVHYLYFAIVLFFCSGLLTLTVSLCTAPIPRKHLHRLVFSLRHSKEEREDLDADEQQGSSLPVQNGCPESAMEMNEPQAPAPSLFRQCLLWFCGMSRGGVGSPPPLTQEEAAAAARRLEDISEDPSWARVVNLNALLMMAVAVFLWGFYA
The experiment in a line: Determination of SGLT2 inhibiting activity using human SGLT2 expressing cell ([14C]-α-methyl-D-glucopyranoside uptake). In kind it is cell-based. The settings on record: HEK-SGLT2 cells, 1 mM [14C]-α-methyl-D-glucopyranoside, 37° C., 30 min. The method, then:
Determination of SGLT2 Inhibiting Activity Using Human SGLT2 Expressing Cell
1) Preparation of Vector Expressing Human SGLT2 cDNA in Animal Cell
Amplification was performed by PCR using human SGLT2 cDNA clone (Origene: Clone Number, TC303267; GenBank accession number, NM 003041) as a template. The sense oligonucleotide primer for PCR was 5′-[…]-3′ (Primer 3: SEQ ID NO: 3 in the sequence listing),
and the antisense oligonucleotide primer was 5′-[…]-3′ (Primer 4: SEQ ID NO: 4 in the sequence listing). The PCR product was subjected to agarose electrophoresis, then a target DNA fragment was recovered from a single band corresponding to 2037 bases, digested with restriction enzymes HindIII and XhoI, and introduced into the HindIII/XhoI site of vector pCMV-Script (Stratagene) to obtain SGLT2 expressing plasmid pCMV-SGLT2. A HindIII/XhoI fragment was excised from pCMV-SGLT2 and introduced into the BamHI/XhoI site of pENTR1A (Gateway, Invitrogen) to prepare pENTR-SGLT2. Retrovirus vector pLPCX (Clontech) into which Gateway Vector Conversion System Cassette A (Invitrogen) was introduced was used as the destination plasmid to prepare SGLT2 expressing retrovirus vector pLPCX-SGLT2.
2) Establishment of Human SGLT2 Expressing Cell
The retrovirus pLPCX-SGLT2 obtained in 1) was transfected into integrin αvβ3 expressing HEK-293 cells, the cells were treated with antibiotic G418 (brand name, Geneticin: Invitrogen) and puromycin (Clontech) to obtain HEK-SGLT2 cells stably expressing the target vector having resistance. The stably expressing cells were cultured and maintained in DMEM medium containing […] G418, […] puromycin, 3 mM KGT-1075, and 10% FBS.
3) Determination of SGLT2 Inhibiting Activity
HEK-SGLT2 cells were suspended at a density of 10^6 cells/mL in DMEM medium containing 250 mg/mil G418, 1 mg/ml puromycin, and 10% FBS, and 100 μL was seeded in each well of a type 1 collagen-coated 96-well culture plate (Corning). On the following day, the medium was replaced with a sugar uptake buffer (10 mM HEPES [pH 7.5], 5 mM Tris-HCl [pH 7.5], 140 mM NaCl, 2 mM KCl, 1 mM CaCl2, 1 mM MgCl2), and the cells were cultured with 1 mM [^14C]-α-methyl-D-glucopyranoside (0.1 mCi) and a test compound at 37° C. for 30 min, and then washed 3 times with a washing buffer (10 mM HEPES (pH 7.5), 5 mM Tris-HCl (pH 7.5), 140 mM choline chloride, 2 mM KCl, 1 mM CaCl2, 1 mM MgCl2). 100 μL of liquid scintillation cocktail (brand name, Supermix: Perkin-Elmer) was added to each well of the 96-well plate and stirred for 10 min, and then radioactivity was determined with micro β (Perkin-Elmer), a type of liquid scintillation counter. The value obtained by deducting the radioactivity in the presence of an excess amount of an SGLT2 inhibiting compound as the background from each measured value was taken as the sugar uptake activity, the inhibition rate (%) was calculated from the control sugar uptake activity obtained without using a test compound and the sugar uptake activity obtained using a test compound having a predetermined concentration, and the concentrations of the test compound at which the sugar uptake activity was inhibited by 50% were assessed.
One may read the IC50 as the concentration that inhibits the measured activity by half. Read a low IC50 as greater potency in that assay. For `COc1ccc(Cc2ccc(CO)cc2O[C@@H]2O[C@H]([C@@H](C)O)[C@@H](O)[C@H](O)[C@H]2O)c(F)c1` [Example 82, 2-(2-Fluoro-4-methoxybenzyl)-5-hydroxymethylphenyl 7-deoxy-D-glycero-β-D-gluco-heptopyranoside], the half-inhibitory concentration (IC50) was 9.4 nM.
`COc1ccc(Cc2c(OC)cc(CO)cc2O[C@@H]2O[C@H]([C@@H](C)O)[C@@H](O)[C@H](O)[C@H]2O)cc1` [Example 83, 5-Hydroxymethyl-3-methoxy-2-(4-methoxybenzyl)phenyl 7-deoxy-D-glycero-β-D-gluco-heptopyranoside] displayed an IC50 of 39 nM.
Molecule `COc1ccc(Cc2c(F)cc(CO)cc2O[C@@H]2O[C@H]([C@@H](C)O)[C@@H](O)[C@H](O)[C@H]2O)cc1` [Example 84, 3-Fluoro-5-hydroxymethyl-2-(4-methoxybenzyl)phenyl 7-deoxy-D-glycero-β-D-gluco-heptopyranoside] showed an IC50 of 6.3 nM.
For the molecule `C[C@@H](O)[C@H]1O[C@@H](Oc2cc(CO)cc(F)c2Cc2ccc(C3CC3)cc2)[C@H](O)[C@@H](O)[C@@H]1O` [Example 88, 2-(4-Cyclopropylbenzyl)-3-fluoro-5-hydroxymethylphenyl 7-deoxy-D-glycero-β-D-gluco-heptopyranoside], half-maximal inhibition (IC50) required 19 nM.
`CCc1ccc(Cc2c(C)cc(CO)cc2O[C@@H]2O[C@H]([C@@H](C)O)[C@@H](O)[C@H](O)[C@H]2O)cc1` [Example 89, 2-(4-Ethylbenzyl)-5-hydroxymethyl-3-methylphenyl 7-deoxy-D-glycero-β-D-gluco-heptopyranoside] showed a half-inhibitory concentration (IC50) of 35 nM.
`CCOc1ccc(Cc2ccc(CO)cc2O[C@@H]2O[C@H]([C@@H](C)O)[C@@H](O)[C@H](O)[C@H]2O)cc1` [Example 93, 2-(4-Ethoxybenzyl)-5-hydroxymethylphenyl 7-deoxy-D-glycero-β-D-gluco-heptapyranoside] had an IC50 of 13 nM.
`COc1ccc(Cc2c(C)cc(CO)cc2O[C@@H]2O[C@H]([C@@H](C)O)[C@@H](O)[C@H](O)[C@H]2O)cc1` [Example 94, 5-Hydroxymethyl-2-(4-methoxybenzyl)-3-methylphenyl 7-deoxy-D-glycero-β-D-gluco-heptopyranoside] yielded an IC50 of 11 nM.
Molecule `C[C@@H](O)[C@H]1O[C@@H](Oc2cc(CO)cc(Cl)c2Cc2ccc(OC3CC3)cc2)[C@H](O)[C@@H](O)[C@@H]1O` [Example 95, 3-Chloro-2-(4-cyclopropoxybenzyl)-5-hydroxymethyl-phenyl 7-deoxy-D-glycero-β-D-gluco-heptopyranoside] had a half-maximal inhibitory concentration (IC50) of 49 nM.
For `Cc1cc(CO)cc(O[C@@H]2O[C@H]([C@@H](C)O)[C@@H](O)[C@H](O)[C@H]2O)c1Cc1ccc(OC2CC2)cc1` [Example 96, 2-(4-Cyclopropoxybenzyl)-5-hydroxymethyl-3-methyl-phenyl 7-deoxy-D-glycero-β-D-gluco-heptopyranoside], the half-maximal inhibitory concentration (IC50) came to 36 nM.
In the case of `Cc1ccc(Cc2c(F)cc(CO)cc2O[C@@H]2O[C@H]([C@@H](C)O)[C@@H](O)[C@H](O)[C@H]2O)cc1` [Example 97, 3-Fluoro-5-hydroxymethyl-2-(4-methylbenzyl)phenyl 7-deoxy-D-glycero-β-D-gluco-heptopyranoside], it took 11 nM to reach half-maximal inhibition (IC50).
`Cc1ccc(Cc2ccc(CO)cc2O[C@@H]2O[C@H]([C@@H](C)O)[C@@H](O)[C@H](O)[C@H]2O)cc1` [Example 98, 5-Hydroxymethyl-2-(4-methylbenzyl)phenyl 7-deoxy-D-glycero-β-D-gluco-heptapyranoside] gave a 50% inhibitory concentration (IC50) of 17 nM.
Consider `C=Cc1cc(CO)cc(O[C@@H]2O[C@H]([C@@H](C)O)[C@@H](O)[C@H](O)[C@H]2O)c1Cc1ccc(OC)cc1` [Example 101, 5-Hydroxymethyl-2-(4-methoxybenzyl)-3-vinyl-phenyl 7-deoxy-D-glycero-β-D-gluco-heptopyranoside], for which the concentration for half-maximal inhibition (IC50) was 136 nM.
